In ChEMBL document CHEMBL1130119, “2-Carbomethoxy-3-aryl-8-oxabicyclo[3.2.1]octanes: potent non-nitrogen inhibitors of monoamine transporters” (J Med Chem, 1997):

Key:
[1] = biological target: Sodium-dependent serotonin transporter (Homo sapiens, UniProt P31645); test: Inhibition of [3H]citalopram binding to the serotonin transporter (5-HT) in monkey caudate-putamen.; type: tissue-based, Cercopithecidae; conditions: target entry is the homologue from another species
[2] = biological target: Monoamine transporters; serotonin & dopamine (Homo sapiens) (UniProt P31645+Q01959); test: Selectivity ratio measured as the IC50 ratio of DAT receptor to that of 5-HT transporter; conditions: Cercopithecidae
Sequence of Monoamine transporters; serotonin & dopamine (Homo sapiens) (P31645 whole entry, looked up): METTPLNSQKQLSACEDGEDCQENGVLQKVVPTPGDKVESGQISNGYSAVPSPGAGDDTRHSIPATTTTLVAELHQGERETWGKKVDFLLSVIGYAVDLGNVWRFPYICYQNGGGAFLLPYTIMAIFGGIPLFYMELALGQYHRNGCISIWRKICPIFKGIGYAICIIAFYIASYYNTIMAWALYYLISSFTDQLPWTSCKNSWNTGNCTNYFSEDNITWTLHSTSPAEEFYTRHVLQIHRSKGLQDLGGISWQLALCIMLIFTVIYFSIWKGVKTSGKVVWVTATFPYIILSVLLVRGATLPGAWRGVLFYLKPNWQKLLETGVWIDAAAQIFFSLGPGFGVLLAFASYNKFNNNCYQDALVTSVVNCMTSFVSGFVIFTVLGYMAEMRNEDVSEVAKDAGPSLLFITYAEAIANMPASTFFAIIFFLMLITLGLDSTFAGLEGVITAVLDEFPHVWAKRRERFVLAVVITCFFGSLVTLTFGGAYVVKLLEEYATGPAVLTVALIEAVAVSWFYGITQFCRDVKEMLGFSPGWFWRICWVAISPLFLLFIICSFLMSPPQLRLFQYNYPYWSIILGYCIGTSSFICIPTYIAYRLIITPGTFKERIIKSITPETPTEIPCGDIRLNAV
Sequence of Monoamine transporters; serotonin & dopamine (Homo sapiens) (Q01959 whole entry, looked up): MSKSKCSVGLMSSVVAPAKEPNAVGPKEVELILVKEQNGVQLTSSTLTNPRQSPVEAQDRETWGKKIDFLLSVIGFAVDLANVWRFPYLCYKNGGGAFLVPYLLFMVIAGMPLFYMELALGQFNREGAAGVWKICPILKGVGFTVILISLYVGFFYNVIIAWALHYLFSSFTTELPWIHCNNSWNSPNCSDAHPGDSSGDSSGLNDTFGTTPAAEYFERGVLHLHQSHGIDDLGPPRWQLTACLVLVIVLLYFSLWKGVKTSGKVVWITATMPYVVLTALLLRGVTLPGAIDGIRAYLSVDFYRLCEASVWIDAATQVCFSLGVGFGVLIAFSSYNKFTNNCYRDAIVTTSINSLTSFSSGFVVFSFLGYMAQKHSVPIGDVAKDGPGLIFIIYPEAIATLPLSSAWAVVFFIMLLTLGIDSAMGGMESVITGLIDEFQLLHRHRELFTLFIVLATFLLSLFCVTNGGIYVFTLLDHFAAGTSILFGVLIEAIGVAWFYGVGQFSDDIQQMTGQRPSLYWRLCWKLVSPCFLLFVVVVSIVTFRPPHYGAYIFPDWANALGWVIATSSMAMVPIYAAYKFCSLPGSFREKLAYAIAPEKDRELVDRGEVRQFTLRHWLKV

Sequence of Sodium-dependent serotonin transporter (P31645 whole entry): as the sequence (P31645 whole entry, looked up) above

SMILES	IC50 [1] [µM]	Selectivity ratio [2]
COC(=O)C1C2CCC(CC1c1ccc(I)cc1)O2 (stereo in doubt) [listing 1 of 2 here]	0.012	
COC(=O)C1C2CCC(CC1c1ccc(I)cc1)O2 (stereo in doubt) [listing 2 of 2 here]		1.7
COC(=O)C1C2CCC(CC1c1ccccc1)O2 (stereo in doubt; 6a (O-904)) [listing 1 of 2 here]	> 10	
COC(=O)C1C2CCC(CC1c1ccccc1)O2 (stereo in doubt; 6a (O-904)) [listing 2 of 2 here]		10
COC(=O)C1C2CCC(CC1c1ccc(F)cc1)O2 (stereo in doubt; 6b (O-895)) [listing 1 of 2 here]	2.58	
COC(=O)C1C2CCC(CC1c1ccc(F)cc1)O2 (stereo in doubt; 6b (O-895)) [listing 2 of 2 here]		5
COC(=O)C1C2CCC(CC1c1ccc(Cl)cc1)O2 (stereo in doubt; 6c (O-916)) [listing 1 of 2 here]	0.107	
COC(=O)C1C2CCC(CC1c1ccc(Cl)cc1)O2 (stereo in doubt; 6c (O-916)) [listing 2 of 2 here]		11
COC(=O)C1C2CCC(CC1c1ccc(Cl)c(Cl)c1)O2 (stereo in doubt; 6f (O-914)) [listing 1 of 2 here]	0.00652	
COC(=O)C1C2CCC(CC1c1ccc(Cl)c(Cl)c1)O2 (stereo in doubt; 6f (O-914)) [listing 2 of 2 here]		2
COC(=O)C1C2CCC(CC1c1ccccc1)O2 (stereo in doubt; 7a (O-905)) [listing 1 of 2 here]	11.4	
COC(=O)C1C2CCC(CC1c1ccccc1)O2 (stereo in doubt; 7a (O-905)) [listing 2 of 2 here]		6
COC(=O)C1C2CCC(CC1c1ccc(F)cc1)O2 (stereo in doubt; 7b (O-899)) [listing 1 of 2 here]	> 10	
COC(=O)C1C2CCC(CC1c1ccc(F)cc1)O2 (stereo in doubt; 7b (O-899)) [listing 2 of 2 here]		10
COC(=O)C1C2CCC(CC1c1ccc(Cl)cc1)O2 (stereo in doubt; 7c (O-915)) [listing 1 of 2 here]	0.816	
COC(=O)C1C2CCC(CC1c1ccc(Cl)cc1)O2 (stereo in doubt; 7c (O-915)) [listing 2 of 2 here]		29
COC(=O)C1C2CCC(CC1c1ccc(I)cc1)O2 (stereo in doubt; 7e (O-949)) [listing 1 of 2 here]	0.072	
COC(=O)C1C2CCC(CC1c1ccc(I)cc1)O2 (stereo in doubt; 7e (O-949)) [listing 2 of 2 here]		2

SMILES	IC50 [1] [µM]	Selectivity ratio [2]
COC(=O)C1C2CCC(CC1c1ccc(Cl)c(Cl)c1)O2 (stereo in doubt; 7f (O-913)) [listing 1 of 2 here]	0.0645	
COC(=O)C1C2CCC(CC1c1ccc(Cl)c(Cl)c1)O2 (stereo in doubt; 7f (O-913)) [listing 2 of 2 here]		21
COC(=O)C1C(c2ccc(I)cc2)CC2CCC1N2C (stereo in doubt; 8d)	0.00421	
COC(=O)[C@H]1[C@@H](c2ccc(F)cc2)C[C@H]2CC[C@H]1N2C (stereo in doubt; 19b)	5.06	
COC(=O)C1C(c2ccc(I)cc2)CC2CCC1N2C (stereo in doubt; 19d)	0.0649	
COC(=O)C1C2CCC(CC1c1ccc(Cl)c(Cl)c1)O2 (stereo in doubt; form 1) [listing 1 of 2 here]	0.058	
COC(=O)C1C(c2ccc(Cl)c(Cl)c2)CC2CCC1N2C (stereo in doubt; form 1)	0.027	
COC(=O)C1C2CCC(CC1c1ccc(Br)cc1)O2 (stereo in doubt; form 1) [listing 1 of 2 here]	0.03	
COC(=O)C1C2CCC(CC1c1ccc(Br)cc1)O2 (stereo in doubt; form 1) [listing 2 of 2 here]		1.4
COC(=O)C1C2CCC(CC1c1ccc(Cl)c(Cl)c1)O2 (stereo in doubt; form 1) [listing 2 of 2 here]		1.2
COC(=O)C1C2CCC(CC1c1ccc(Cl)c(Cl)c1)O2 (stereo in doubt; form 2) [listing 1 of 2 here]	2.86	
COC(=O)C1C2CCC(CC1c1ccc(Br)cc1)O2 (stereo in doubt; form 2) [listing 1 of 2 here]	0.276	
COC(=O)C1C2CCC(CC1c1ccc(Br)cc1)O2 (stereo in doubt; form 2) [listing 2 of 2 here]		31
COC(=O)C1C2CCC(CC1c1ccc(Cl)c(Cl)c1)O2 (stereo in doubt; form 2) [listing 2 of 2 here]		51
COC(=O)C1C2CCC(CC1c1ccc(Cl)c(Cl)c1)O2 (stereo in doubt; form 3) [listing 1 of 2 here]	0.031	
COC(=O)C1C2CCC(CC1c1ccc(Cl)c(Cl)c1)O2 (stereo in doubt; form 3) [listing 2 of 2 here]		13
COC(=O)C1C2CCC(CC1c1ccc(Cl)c(Cl)c1)O2 (stereo in doubt; form 4) [listing 1 of 2 here]	0.00467	
COC(=O)C1C2CCC(CC1c1ccc(Cl)c(Cl)c1)O2 (stereo in doubt; form 4) [listing 2 of 2 here]		1.4
